ChEMBL document CHEMBL1201862, “PubChem BioAssay data set” (2004)
Structures can show the parent of a compound that is named as a salt.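 Protocol summary: plate cells (96-well), add compound at 5 concentrations, incubate 48 h, interpolate endpoints linearly. The concentration for 50% growth inhibition is given as GI50.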 Activity calls are given as the source filed them. Rule as the data show it: active = GI50 up to about 1.1 µM and inactive = higher.

How the values were obtained:
Assay in all cases: NCI tumour cell line growth inhibition, 48 h
BT-549 = tested on: BT-549
DMS-114 = tested on: DMS-114
HOP-18 = tested on: HOP-18
Hs-578T = tested on: Hs-578T
M19-MEL = tested on: M19-MEL
MDA-N = tested on: MDA-N
LXFL 529 = tested on: LXFL 529
SNB-78 = tested on: SNB-78

**Q.** For `Cc1cn([C@H]2C[C@H](N=[N+]=[N-])[C@@H](CO)O2)c(=O)[nH]c1=O` [ZIDOVUDINE], which GI50 (BT-549) is on record?
**A.** 488 µM (inactive)

**Q.** And the GI50 (DMS-114)?
**A.** > 95.5 µM (inactive)

**Q.** What about the GI50 (HOP-18) of the same molecule?
**A.** > 100 µM (inactive)

**Q.** What about the GI50 (Hs-578T) of the same molecule?
**A.** 885 µM (inactive)

**Q.** What about the GI50 (M19-MEL) of the same molecule?
**A.** > 100 µM (inactive)

**Q.** And the GI50 (MDA-N)?
**A.** 655 µM (inactive)

**Q.** With `O=c1cc(NCC2CCCCC2)[nH]c(=O)[nH]1` as the molecule, how does the GI50 (BT-549) read?
**A.** > 100 µM (inactive)

**Q.** What about the GI50 (Hs-578T) of the same molecule?
**A.** > 100 µM (inactive)

**Q.** And the GI50 (MDA-N)?
**A.** > 100 µM (inactive)

**Q.** Which GI50 (BT-549) does the source give for `COc1ccc(C(=O)/C=C2\Nc3cccnc3N\C2=C/C(=O)c2ccc(OC)cc2)cc1` here?
**A.** 18.8 µM (inactive)

**Q.** And the GI50 (Hs-578T)?
**A.** 15.2 µM (inactive)

**Q.** What about the GI50 (MDA-N) of the same molecule?
**A.** 64.7 µM (inactive)

**Q.** What does the source list for `CN/C(=N/C#N)NCc1ccccc1`?
**A.** GI50 (DMS-114): > 100 µM (inactive); GI50 (LXFL 529): > 100 µM (inactive); GI50 (M19-MEL): > 100 µM (inactive); GI50 (SNB-78): > 100 µM (inactive)

**Q.** `CN(C)CCCc1cccnc1` was tested. Which GI50 (BT-549) did it give?
**A.** > 100 µM (inactive)

**Q.** What about the GI50 (Hs-578T) of the same molecule?
**A.** > 100 µM (inactive)

**Q.** And the GI50 (MDA-N)?
**A.** > 100 µM (inactive)

**Q.** Which GI50 (BT-549) does the source give for `COC(=O)c1c(O)ccc2c1c1c(n2CCc2ccccc2)C(=O)c2ccccc2C1` here?
**A.** 24.4 µM (inactive)

**Q.** And the GI50 (Hs-578T)?
**A.** 29.7 µM (inactive)

**Q.** What about the GI50 (MDA-N) of the same molecule?
**A.** 24.4 µM (inactive)

**Q.** Which results are given for `c1ccc2c(c1)ccc1nc3ccccn3c12`?
**A.** GI50 (BT-549): > 100 µM (inactive); GI50 (Hs-578T): 15.3 µM (inactive)

**Q.** How did the GI50 (DMS-114) turn out when `N=C(N)NS(=O)(=O)c1ccc(NC(=O)c2cccc3cc4ccccc4nc23)cc1` was run?
**A.** 97.5 µM (inactive)

**Q.** And the GI50 (LXFL 529)?
**A.** 21.7 µM (inactive)

**Q.** What about the GI50 (M19-MEL) of the same molecule?
**A.** > 100 µM (inactive)

**Q.** And the GI50 (SNB-78)?
**A.** 40.6 µM (inactive)

**Q.** What does the source list for `Cc1ccc(N(Cc2ccccc2)Cc2ccccc2)cc1`?
**A.** GI50 (BT-549): > 100 µM (inactive); GI50 (Hs-578T): 40.5 µM (inactive); GI50 (MDA-N): 33.8 µM (inactive)

**Q.** For `[N-]=[N+]=Nc1c(N2CCOCC2)c(Cl)nc2ccccc12`, which GI50 (BT-549) is on record?
**A.** 25.4 µM (inactive)

**Q.** And the GI50 (Hs-578T)?
**A.** 44.8 µM (inactive)

**Q.** And the GI50 (MDA-N)?
**A.** 48.8 µM (inactive)

**Q.** `Cc1cc(NS(=O)(=O)c2ccc(NC(=O)c3cccc4c(NNc5ccc(S(N)(=O)=O)cc5)c5ccccc5nc34)cc2)no1` was tested. Which GI50 (BT-549) did it give?
**A.** 61.5 µM (inactive)

**Q.** What about the GI50 (MDA-N) of the same molecule?
**A.** 52.1 µM (inactive)

**Q.** With `NCCCCN` [PUTRESCINE HYDROCHLORIDE] as the molecule, how does the GI50 (BT-549) read?
**A.** > 100 µM (inactive)

**Q.** Which results are given for `Cc1nc2ccccc2c(=O)n1-c1n[nH]c2ccccc12`?
**A.** GI50 (BT-549): > 100 µM (inactive); GI50 (Hs-578T): > 100 µM (inactive)

**Q.** What does the source list for `O=C1C2=C(N[C@@H](c3ccccc3)[C@H](c3ccccc3)N2)C(=O)c2ccccc21`?
**A.** GI50 (DMS-114): > 100 µM (inactive); GI50 (LXFL 529): > 100 µM (inactive); GI50 (M19-MEL): > 100 µM (inactive); GI50 (SNB-78): > 100 µM (inactive)

**Q.** Which GI50 (BT-549) does the source give for `COC(=O)/C=C/c1cnc2c(c1)oc(=O)n2C` here?
**A.** > 100 µM (inactive)

**Q.** What about the GI50 (Hs-578T) of the same molecule?
**A.** > 100 µM (inactive)

**Q.** What about the GI50 (MDA-N) of the same molecule?
**A.** > 100 µM (inactive)

**Q.** Which GI50 (Hs-578T) does the source give for `CC(O)c1c2c(cc3c1CC1(C3)Cc3cc4c(c(C(C)O)c3C1)CCC4)CCC2` (stereo not given) here?
**A.** 22.5 µM (inactive)

**Q.** For `O=C(Cn1c(=O)oc2ccc(C(=O)c3ccccc3Cl)cc21)c1ccc([N+](=O)[O-])cc1`, which GI50 (BT-549) is on record?
**A.** 19.1 µM (inactive)

**Q.** And the GI50 (Hs-578T)?
**A.** 37.2 µM (inactive)

**Q.** What about the GI50 (MDA-N) of the same molecule?
**A.** 18.1 µM (inactive)

**Q.** What does the source list for `O=C1Nc2cc(Cl)ccc2C(=O)N2CCC[C@@H]12`?
**A.** GI50 (BT-549): > 100 µM (inactive); GI50 (Hs-578T): 33.5 µM (inactive); GI50 (MDA-N): > 100 µM (inactive)

**Q.** For `O=[N+]([O-])c1ccc(Cl)c(CNc2ncnc3c2ncn3C2CCCCO2)c1` (stereo not given), which GI50 (BT-549) is on record?
**A.** 41.2 µM (inactive)

**Q.** And the GI50 (Hs-578T)?
**A.** > 100 µM (inactive)

**Q.** What about the GI50 (MDA-N) of the same molecule?
**A.** 12.7 µM (inactive)

**Q.** `C=CCOC1=C(OC(C)=O)C(=O)OC1C1COC(C)(C)O1` (stereo not given) was tested. Which GI50 (BT-549) did it give?
**A.** 43.1 µM (inactive)

**Q.** What about the GI50 (Hs-578T) of the same molecule?
**A.** 32.4 µM (inactive)

**Q.** And the GI50 (MDA-N)?
**A.** 30.1 µM (inactive)

**Q.** Which GI50 (BT-549) does the source give for `COc1ccc(CC2C(=O)NC(C)C(=O)N(C)C3C(=O)N(C)C(Cc4ccc(O)c(c4)Oc4ccc(cc4)C3O)C(=O)NC(C)C(=O)NC(C)C(=O)N2C)cc1` (stereo not given) here?
**A.** < 0.01 µM (active)

**Q.** What about the GI50 (DMS-114) of the same molecule?
**A.** 0.00145 µM (active)

**Q.** And the GI50 (HOP-18)?
**A.** 0.00195 µM (active)

**Q.** What about the GI50 (Hs-578T) of the same molecule?
**A.** 0.01 µM (active)

**Q.** What about the GI50 (M19-MEL) of the same molecule?
**A.** 0.013 µM (active)

**Q.** And the GI50 (SNB-78)?
**A.** 0.00188 µM (active)

**Q.** For `O=C(Nc1ccc([N+](=O)[O-])cc1[N+](=O)[O-])C(=O)C(C(=O)c1ccc(Cl)c(Cl)c1)C1OC(=O)c2ccccc21` (stereo not given), which GI50 (DMS-114) is on record?
**A.** 18.1 µM (inactive)

**Q.** What about the GI50 (LXFL 529) of the same molecule?
**A.** 17.1 µM (inactive)

**Q.** What about the GI50 (M19-MEL) of the same molecule?
**A.** 25.1 µM (inactive)

**Q.** What about the GI50 (SNB-78) of the same molecule?
**A.** 21.9 µM (inactive)

**Q.** For `CCCCCCCCCCCCCCCCCCNc1ccn(C2OC(COP(=O)(O)OCC3OC(n4cc(C)c(=O)[nH]c4=O)CC3F)C(O)C2O)c(=O)n1` (stereo not given), which GI50 (BT-549) is on record?
**A.** 5.19 µM (inactive)

**Q.** What about the GI50 (Hs-578T) of the same molecule?
**A.** 11.1 µM (inactive)

**Q.** And the GI50 (MDA-N)?
**A.** 8.15 µM (inactive)

**Q.** With `CNC(=O)OCc1cnc([N+](=O)[O-])n1C` as the molecule, how does the GI50 (BT-549) read?
**A.** > 100 µM (inactive)

**Q.** And the GI50 (Hs-578T)?
**A.** > 100 µM (inactive)

**Q.** What about the GI50 (MDA-N) of the same molecule?
**A.** > 100 µM (inactive)

**Q.** With `O=C1/C(=C/c2ccco2)N=C2Sc3c([nH]cnc3=O)N12` as the molecule, how does the GI50 (Hs-578T) read?
**A.** > 100 µM (inactive)

**Q.** What about the GI50 (MDA-N) of the same molecule?
**A.** > 100 µM (inactive)

**Q.** Which GI50 (BT-549) does the source give for `Clc1ccc(C2=Cc3nc2c(-c2ccccc2)c2ccc([nH]2)c(-c2ccccc2)c2nc(c(-c4ccccc4)c4ccc([nH]4)c3-c3ccccc3)C=C2)cc1` here?
**A.** > 62.5 µM (inactive)

**Q.** What about the GI50 (Hs-578T) of the same molecule?
**A.** > 62.5 µM (inactive)

**Q.** What about the GI50 (MDA-N) of the same molecule?
**A.** > 62.5 µM (inactive)

**Q.** Which GI50 (BT-549) does the source give for `NC1N=C(c2ccc(Cl)cc2)C2=C(N1)c1ccccc1CC2` (stereo not given) here?
**A.** > 100 µM (inactive)

**Q.** What about the GI50 (Hs-578T) of the same molecule?
**A.** 8.71 µM (inactive)

**Q.** And the GI50 (MDA-N)?
**A.** 2.29 µM (inactive)

**Q.** `C=C1[C@@H](C)[C@H]2[C@H](Cc3ccccc3)NC(=O)[C@]23OC(=O)/C=C/[C@H](O)CCC[C@@H](C)C/C=C/[C@H]3[C@@H]1O` was tested. Which GI50 (BT-549) did it give?
**A.** 15.4 µM (inactive)

**Q.** And the GI50 (DMS-114)?
**A.** 14.5 µM (inactive)

**Q.** And the GI50 (HOP-18)?
**A.** 0.156 µM (active)

**Q.** And the GI50 (Hs-578T)?
**A.** 5.89 µM (inactive)

**Q.** And the GI50 (M19-MEL)?
**A.** 45.8 µM (inactive)

**Q.** And the GI50 (MDA-N)?
**A.** 14.2 µM (inactive)

**Q.** And the GI50 (SNB-78)?
**A.** 1.03 µM (active)
